# In US8642647B2, “N1-benzo[1,3]dioxol-5-ylmethyl-N2-substituted biguanide derivative, preparation method thereof, and pharmaceutical composition containing same” (Hanall Biopharma Co., Ltd., priority 2008, dated 2014):
# Several values for one entry are separate records, joined by “and”; a condition that tells them apart may be missing. Identical values can stand only once. Counter-ions that a name gives are not always drawn.
# How the values were obtained:
# [1] = system: HepG2 cells; assay: Measurement of triglyceride synthesis inhibitory ability; assay type: cell-based; conditions: HepG2 cells; for Triglyceride (100 μM) aver.: 100 μM compound; for Triglyceride (100 μM) aver. / Triglyceride (500 μM) aver.: 24 hours, content of triglyceride formed, lower value = stronger inhibition; for Triglyceride (500 μM) aver.: 500 μM compound
# Description: (§1) 2 mM metformin was used as a comparative compound for each of the plates (control group).
# HepG2 cells (ATCC: American Type Culture Collection) were cultured in 1% serum-containing media (DMEM (Gibco), FBS (Gibco)) for 24 hours, and then treated with 100 μM or 500 μM of each of the compounds prepared in Examples for 24 hours. Then, the cells were disrupted with a lysis solution (0.1 M potassium phosphate, pH 7.4, 0.05 M NaCl, 5 mM cholic acid, 0.1% Triton X-100). To the disrupted cells was added the same volume of a reaction solution (0.76 U/ml of a glycerol kinase (Asan Pharmaceutical Co., Ltd.), […] of a peroxidase (Asan Pharmaceutical Co., Ltd.), 22.2 U/ml of a glycerol oxidizing agent (Asan Pharmaceutical Co., Ltd.), and 300 μM of Amplex red as a fluorescent factor (Molecular Probe)), which was allowed to react at 37° C. for 30 minutes. After completion of the reaction, the content of triglyceride formed in the cell lysates was measured at a wavelength of 560/590 nm (ex/em) using a fluorescence microscope.
# A lower measurement value means an increased triglyceride synthesis inhibitory ability.
# [2] = system: HepG2 cells; assay: Measurement of gluconeogenesis inhibitory ability; assay type: cell-based; conditions: for activity at 100 µM: Homo sapiens, HepG2, 24 h, read-out: Gluconeogenesis inhibition (100 μM) aver.; for activity at 100 µM / Gluconeogenesis inhibition (100 μM) aver.: 100 μM compound, 24 hours, content of glucose formed from 14C-lactate, lower value = stronger inhibition
# Description: as §1
# HepG2 cells (ATCC: American Type Culture Collection) were cultured in 10% serum-containing high glucose media, transferred to no serum-containing low glucose media (DMEM (Gibco), FBS (Gibco)), and then treated with 100 μM of each of the compounds for 24 hours. Then, the cells were treated with 0.5 μCi ^14C-lactate (Amersham Pharmacia) and 10 mM L-lactate (Sigma), and cultured for 4 hours. After cultivation, the media were removed therefrom, and the cells were washed with PBS, treated with 0.1N NaOH and kept at room temperature for 1 hour. Then, the cells were neutralized with 1N HCl, and the content of glucose formed in the cells was measured with a liquid scintillation counter.
# A lower measurement value means an increased gluconeogenesis inhibitory ability.
# [3] = system: C2C12 cells; assay: Measurement of glucose absorption ability; assay type: cell-based; conditions: for Glucose absorption (100 μM) aver.: 100 μM compound with 1 μM insulin, 24 hours, differentiated C2C12 cells, 3H-deoxy-glucose, higher value = stronger, more than 200% counts as glucose absorption ability
# Description: as §1
# C2C12 cells (ATCC: American Type Culture Collection), a muscle cell model, were induced to differentiate into muscle cells in 2% bovine fetal serum-containing media (DMEM (Gibco), FBS (Gibco)) for 6 days. The C2C12 cells which differentiated into muscle cells were transferred to serum-free low glucose media (DMEM (Gibco), FBS (Gibco)), treated with 100 μM of each of the compounds, and then cultured with 1 μM of insulin for 24 hours. After cultivation, the cells were treated with 1 μCi ^3H-deoxy-glucose (Amersham Pharmacia) and 10 μM deoxy-glucose (Sigma) at 37° C. for 15 minutes. The media were removed therefrom, and the cells were washed twice with PBS (phosphate buffered saline). The washed cells were treated with 0.1N NaOH and neutralized with 1N HCl. The content of glucose absorbed into the cells was measured with a liquid scintillation counter.
# A higher measurement value means a stronger ability to reduce insulin resistance.
# [4] = system: HepG2 cells; assay: Measurement of cholesterol synthesis inhibitory ability; assay type: cell-based; conditions: HepG2 cells; for Cholesterol (100 μM) aver.: 100 μM compound; for Cholesterol (100 μM) aver. / Cholesterol (500 μM) aver.: 24 hours, content of cholesterol formed, lower value = stronger inhibition; for Cholesterol (500 μM) aver.: 500 μM compound
# Description: as §1
# A cholesterol synthesis inhibitory ability, which is an important function of AMPK (AMP-activated protein kinase), was measured using HepG2 cells (ATCC: American Type Culture Collection) as a hepatic cell model according to the following procedure.
# The hepatic cell model HepG2 cells were cultured in 1% serum-containing media (DMEM (Gibco), FBS (Gibco)) for 24 hours, and then treated with 100 μM or 500 μM of each of the compounds prepared in Examples for 24 hours. Then, the cells were disrupted with a lysis solution (0.1 M potassium phosphate, pH 7.4, 0.05 M NaCl, 5 mM cholic acid, 0.1% Triton X-100 (Sigma)). To the disrupted cells was added the same volume of a reaction solution (2 U/ml of a cholesterol oxidizing agent, 2 U/ml of a peroxidase, 0.2 U/ml of a cholesterol esterase, and 300 μM of Amplex red as a fluorescent factor (Molecular Probe)), which was allowed to react at 37° C. for 30 minutes. After completion of the reaction, the content of cholesterol formed in the cell lysates was measured at a wavelength of 560/590 nm (ex/em) using a fluorescence microscope.
# A lower measurement value means an increased cholesterol synthesis inhibitory ability.
# [5] = 100 μM compound versus 2 mM metformin
# [6] = Metformin 2 mM, one value per plate
Molecule,melting point,Triglyceride (100 μM) aver. [1],Triglyceride (500 μM) aver. [1],activity at 100 µM ([2]; HepG2 cells),"glucose absorption effect better than that of the control group [3, 5]",Cholesterol (100 μM) aver. [4],Cholesterol (500 μM) aver. [4],Gluconeogenesis inhibition (100 μM) aver. ([2]; HepG2 cells),Glucose absorption (100 μM) aver. [3],"effect in inhibiting gluconeogenesis better than that of the control group [2, 5]","Triglyceride aver. (control group) [1, 6]","Gluconeogenesis inhibition aver. (control group) ([2]; Metformin 2 mM, HepG2 cells, one value per plate)","Glucose absorption aver. (control group) ([3]; Metformin 2 mM, C2C12 cells, one value per plate)","Cholesterol aver. (control group) [4, 6]","Gluconeogenesis inhibition (100 μM) aver. ([2]; HepG2 cells, 100 µM)"
"N=C(N)NC(=Nc1cccc2ccccc12)NCc1ccc2c(c1)OCO2 (as salt: hydrochloride) [Example 3, N1-benzo[1,3]dioxol-5-ylmethyl-N2-(1-naphthyl)biguanide hydrochloride]",196.1 to 198.6 °C,–,–,–,–,–,–,–,–,–,–,–,–,–,–
"Cl.N=C(N)NC(=NCc1ccccc1)NCc1ccc2c(c1)OCO2 [Example 5, N1-benzo[1,3]dioxol-5-ylmethyl-N2-benzyl biguanide hydrochloride]",–,102.8,15.7,108%,about 220 times,30.3,−8.28,–,–,–,–,–,–,–,–
"CCc1cc(Cl)ccc1NC(=N)NC(=N)NCc1ccc2c(c1)OCO2.Cl [Example 8, N1-benzo[1,3]dioxol-5-ylmethyl-N2-(2-ethyl-4-chloro)phenyl biguanide hydrochloride]",–,3.35,19.3,–,–,−1.48,28.1,96.20,14.21%,–,–,–,–,–,–
"CC(C)(C)CC(C)(C)N=C(NCc1ccc2c(c1)OCO2)NC(=N)N.Cl [Example 9, N1-benzo[1,3]dioxol-5-ylmethyl-N2-t-octyl biguanide hydrochloride]",141.7 to 155.4 °C,82.6,−1.23,47.5%,–,37.3,−7.10,–,–,at least 20 times,–,–,–,–,–
"CN=C(NCc1ccc2c(c1)OCO2)NC(=N)N.Cl [Example 17, N1-benzo[1,3]dioxol-5-ylmethyl-N2-methyl biguanide hydrochloride]",143.9 to 158.1 °C,96.55,53.45,90.2%,–,55.85,12.19,–,–,–,–,–,–,–,–
"Cl.N=C(NCc1ccc2c(c1)OCO2)NC(=N)NCC1CC1 [Example 21, N1-benzo[1,3]dioxol-5-ylmethyl-N2-cyclopropanemethyl biguanide hydrochloride]",–,108.88,83.07,–,–,54.92,15.61,88.12,162.2%,–,–,–,–,–,–
"Cl.N=C(NCc1ccc2c(c1)OCO2)NC(=N)Nc1ccc(-c2ccccc2)cc1 [Example 35, N1-benzo[1,3]dioxol-5-ylmethyl-N2-(4-biphenyl)biguanide hydrochloride]",–,18.86,14.13,–,–,9.93,23.56,2.28,39.19%,–,–,–,–,–,–
"Cl.N=C(N)NC(=Nc1ccccc1)NCc1ccc2c(c1)OCO2 [Example 45, N1-benzo[1,3]dioxol-5-ylmethyl-N2-phenyl biguanide hydrochloride]",–,96.12,35.45,117%,–,77.21,23.24,–,–,–,–,–,–,–,–
"COCCOCCOCCN=C(NCc1ccc2c(c1)OCO2)NC(=N)N.Cl [Example 46, N1-benzo[1,3]dioxol-5-ylmethyl-N2-(2-(2-(2-methoxyethoxy)ethoxy)ethyl)biguanide hydrochloride]",–,89.69,93.41,101%,–,90.31,91.68,–,–,–,–,–,–,–,–
"CN(C)C(=N)N=C(N)N [Metformin, metformin, reference compound]",–,–,–,–,–,–,–,–,–,–,74.57 and 69.88 and 73.61 and 70.05,64.50 and 59.11 and 53.09 and 78.33,253.20% and 336.45% and 291.63% and 170.94%,73.31 and 74.50 and 85.91 and 70.69,–
"N1-benzo[1,3]dioxol-5-ylmethyl-N2-(1-adamantyl)biguanide hydrochloride (isomer) [Example 28]",–,89.72,28.87,–,–,73.67,30.11,–,2.20%,–,–,–,–,–,79.17
"N1-benzo[1,3]dioxol-5-ylmethyl-N2-(1-adamantyl)biguanide hydrochloride (isomer) [Example 29]",–,101.52,81.39,–,–,43.03,67.50,–,140.2%,–,–,–,–,–,92.07
"N1-benzo[1,3]dioxol-5-ylmethyl-N2-t-butyl biguanide hydrochloride [Example 4]",–,89.8,70.1,–,–,27.6,11.0,100.2,162.5%,–,–,–,–,–,–
